Measured values from patent US20050020542A1, “Method of modulating sodium ion absorption in epithelial cells” (priority 2001, published 2005).

Tested on: calcium-activated Cl- channel
Assay: Perforated patch whole cell recording of Cl- current
Assay type: cell-based, human
Description: In FIGS. 4A and 4B, the response to 10 μM INO-E2 is contrasted with the response to ATP.

CCCCCCCCOC1C(OC(=O)CCC)C(OP(=O)(OCOC(=O)CC)OCOC(=O)CC)C(OP(=O)(OCOC(=O)CC)OCOC(=O)CC)C(OP(=O)(OCOC(=O)CC)OCOC(=O)CC)C1OP(=O)(OCOC(=O)CC)OCOC(=O)CC (centres unmarked) [INO-E2, 2-O-butyryl-1-O-octyl-myo-inositol 3,4,5,6-tetrakisphosphate octakis (propionoxymethyl) ester]
time to appearance of Cl- currents after addition (10 μM, CFHNE cell, perforated patch): 5 to 15 min | increase in chloride current (5 and 10 μM, other perforated patch recordings, data not shown): low to intermediate increase
